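Assay format: 96-well plates, 48-hour exposure. TGI marks complete inhibition of growth.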
What was measured:
Assay in all cases: DTP human tumour cell line panel, 48 h
SK-MEL-2 melanoma = system: SK-MEL-2 melanoma
COLO 205 colon = system: COLO 205 colon
MALME-3M melanoma = system: MALME-3M melanoma
KM12 colon = system: KM12 colon
SNB-75 CNS = system: SNB-75 CNS
UO-31 renal = system: UO-31 renal
SK-OV-3 ovarian = system: SK-OV-3 ovarian
OVCAR-5 ovarian = system: OVCAR-5 ovarian
SR leukemia = system: SR leukemia
NCI-H226 lung = system: NCI-H226 lung
IGROV1 ovarian = system: IGROV1 ovarian
HL-60(TB) leukemia = system: HL-60(TB) leukemia
ACHN renal = system: ACHN renal
HCT-15 colon = system: HCT-15 colon
MOLT-4 leukemia = system: MOLT-4 leukemia
SF-539 CNS = system: SF-539 CNS
LXFL 529 NSCLC = system: LXFL 529 NSCLC
OVCAR-3 ovarian = system: OVCAR-3 ovarian
RPMI-8226 leukemia = system: RPMI-8226 leukemia
UACC-257 melanoma = system: UACC-257 melanoma
CCRF-CEM leukemia = system: CCRF-CEM leukemia
TK-10 renal = system: TK-10 renal
OVCAR-8 ovarian = system: OVCAR-8 ovarian
M14 melanoma = system: M14 melanoma
SF-268 CNS = system: SF-268 CNS
SK-MEL-28 melanoma = system: SK-MEL-28 melanoma
HOP-62 NSCLC = system: HOP-62 NSCLC
CAKI-1 renal = system: CAKI-1 renal
NCI-H23 lung = system: NCI-H23 lung
786-0 renal = system: 786-0 renal
M19-MEL melanoma = system: M19-MEL melanoma
HOP-92 NSCLC = system: HOP-92 NSCLC
LOX IMVI melanoma = system: LOX IMVI melanoma
SN12C renal = system: SN12C renal
KM20L2 colon = system: KM20L2 colon
U251 CNS = system: U251 CNS
NCI-H522 lung = system: NCI-H522 lung
SNB-19 CNS = system: SNB-19 CNS
A549 NSCLC = system: A549 NSCLC
OVCAR-4 ovarian = system: OVCAR-4 ovarian
SW-620 colon = system: SW-620 colon
DLD-1 colon = system: DLD-1 colon
RXF 393 renal = system: RXF 393 renal
SF-295 CNS = system: SF-295 CNS
DMS 273 small cell lung = system: DMS 273 small cell lung
HT29 colon = system: HT29 colon
K-562 leukemia = system: K-562 leukemia
NCI-H460 lung = system: NCI-H460 lung
HCC-2998 colon = system: HCC-2998 colon
A498 renal = system: A498 renal
BT-549 breast = system: BT-549 breast
DU-145 prostate = system: DU-145 prostate
T-47D breast = system: T-47D breast
EKVX NSCLC = system: EKVX NSCLC
PC-3 prostate = system: PC-3 prostate
MDA-N = system: MDA-N
MDA-MB-435 = system: MDA-MB-435
SK-MEL-5 melanoma = system: SK-MEL-5 melanoma
HCT-116 colon = system: HCT-116 colon
HS 578T breast = system: HS 578T breast
MDA-MB-231 breast = system: MDA-MB-231 breast
MCF7 breast = system: MCF7 breast
NCI/ADR-RES ovarian = system: NCI/ADR-RES ovarian
UACC-62 melanoma = system: UACC-62 melanoma

## C/C(=N/O)C1CC=C(S(=O)(=O)c2ccccc2)C1 (stereo not drawn)
SK-MEL-2 melanoma
  TGI: > 100 µM
COLO 205 colon
  TGI: > 100 µM
MALME-3M melanoma
  TGI: > 100 µM
KM12 colon
  TGI: > 100 µM
SNB-75 CNS
  TGI: > 100 µM
UO-31 renal
  TGI: > 100 µM
SK-OV-3 ovarian
  TGI: > 100 µM
OVCAR-5 ovarian
  TGI: > 100 µM
SR leukemia
  TGI: > 100 µM
NCI-H226 lung
  TGI: > 100 µM
IGROV1 ovarian
  TGI: > 100 µM
HL-60(TB) leukemia
  TGI: > 100 µM
ACHN renal
  TGI: > 100 µM
HCT-15 colon
  TGI: > 100 µM
MOLT-4 leukemia
  TGI: > 100 µM
SF-539 CNS
  TGI: > 100 µM
LXFL 529 NSCLC
  TGI: > 100 µM
OVCAR-3 ovarian
  TGI: > 100 µM
RPMI-8226 leukemia
  TGI: > 100 µM
UACC-257 melanoma
  TGI: > 100 µM
CCRF-CEM leukemia
  TGI: > 100 µM
TK-10 renal
  TGI: > 100 µM
OVCAR-8 ovarian
  TGI: > 100 µM
M14 melanoma
  TGI: > 100 µM
SF-268 CNS
  TGI: > 100 µM
SK-MEL-28 melanoma
  TGI: > 100 µM
HOP-62 NSCLC
  TGI: > 100 µM
CAKI-1 renal
  TGI: > 100 µM
NCI-H23 lung
  TGI: > 100 µM
786-0 renal
  TGI: > 100 µM
M19-MEL melanoma
  TGI: > 100 µM
HOP-92 NSCLC
  TGI: > 100 µM
LOX IMVI melanoma
  TGI: > 100 µM
SN12C renal
  TGI: > 100 µM
KM20L2 colon
  TGI: > 100 µM
U251 CNS
  TGI: > 100 µM
NCI-H522 lung
  TGI: > 100 µM
SNB-19 CNS
  TGI: > 100 µM
A549 NSCLC
  TGI: > 100 µM
OVCAR-4 ovarian
  TGI: > 100 µM
SW-620 colon
  TGI: > 100 µM
DLD-1 colon
  TGI: > 100 µM
RXF 393 renal
  TGI: > 100 µM
SF-295 CNS
  TGI: > 100 µM
DMS 273 small cell lung
  TGI: > 100 µM
HT29 colon
  TGI: > 100 µM
K-562 leukemia
  TGI: > 100 µM
NCI-H460 lung
  TGI: > 100 µM
HCC-2998 colon
  TGI: > 100 µM

## CCN(CC)CC(O)c1ccc2ccc3ccccc3c2c1 (stereo not drawn)
SK-MEL-2 melanoma
  TGI: 30.9 µM
COLO 205 colon
  TGI: 29.9 µM
MALME-3M melanoma
  TGI: 34 µM
KM12 colon
  TGI: 29.1 µM
SNB-75 CNS
  TGI: 33.5 µM
UO-31 renal
  TGI: 24.1 µM
A498 renal
  TGI: 26.3 µM
SK-OV-3 ovarian
  TGI: 29.5 µM
OVCAR-5 ovarian
  TGI: 27.5 µM
SR leukemia
  TGI: 24.8 µM
NCI-H226 lung
  TGI: 29.5 µM
IGROV1 ovarian
  TGI: 33 µM
HL-60(TB) leukemia
  TGI: 30.1 µM
BT-549 breast
  TGI: 30.5 µM
ACHN renal
  TGI: 27.3 µM
HCT-15 colon
  TGI: 33.2 µM
MOLT-4 leukemia
  TGI: 32.9 µM
SF-539 CNS
  TGI: 25.8 µM
OVCAR-3 ovarian
  TGI: 29.1 µM
RPMI-8226 leukemia
  TGI: 38.2 µM
DU-145 prostate
  TGI: 33 µM
UACC-257 melanoma
  TGI: 31.5 µM
CCRF-CEM leukemia
  TGI: 45.3 µM
TK-10 renal
  TGI: 29.9 µM
OVCAR-8 ovarian
  TGI: 32 µM
T-47D breast
  TGI: 37.7 µM
EKVX NSCLC
  TGI: 29.5 µM
M14 melanoma
  TGI: 30.9 µM
SF-268 CNS
  TGI: 34.7 µM
SK-MEL-28 melanoma
  TGI: 34.6 µM
PC-3 prostate
  TGI: 30.1 µM
HOP-62 NSCLC
  TGI: 29.6 µM
CAKI-1 renal
  TGI: 26.6 µM
NCI-H23 lung
  TGI: 37 µM
786-0 renal
  TGI: 25.6 µM
HOP-92 NSCLC
  TGI: 31.3 µM
MDA-N
  TGI: 31 µM
LOX IMVI melanoma
  TGI: 35.5 µM
MDA-MB-435
  TGI: 31.3 µM
SN12C renal
  TGI: 32.1 µM
SK-MEL-5 melanoma
  TGI: 27.3 µM
U251 CNS
  TGI: 26 µM
NCI-H522 lung
  TGI: 31.9 µM
HCT-116 colon
  TGI: 29.5 µM
HS 578T breast
  TGI: 41.9 µM
MDA-MB-231 breast
  TGI: 28.4 µM
SNB-19 CNS
  TGI: 29.5 µM
A549 NSCLC
  TGI: 31.4 µM
OVCAR-4 ovarian
  TGI: 35.3 µM
MCF7 breast
  TGI: 28.2 µM
SW-620 colon
  TGI: 34.9 µM
NCI/ADR-RES ovarian
  TGI: 33.6 µM
RXF 393 renal
  TGI: 31.4 µM
SF-295 CNS
  TGI: 28.9 µM
HT29 colon
  TGI: 25.2 µM
K-562 leukemia
  TGI: 32.5 µM
UACC-62 melanoma
  TGI: 29.1 µM
NCI-H460 lung
  TGI: 32.7 µM
HCC-2998 colon
  TGI: 23 µM

From PubChem BioAssay (NCI)
